Experimental data from ChEMBL document CHEMBL4507284, “Data for DCP probe BI-1230” (2021).
pKi: −log10 of the molar value.

What was measured:
[1] = molecular target: Cathepsin D (Homo sapiens) (UniProt P07339); test: Cathepsin D (h) Eurofins-Cerep enzyme and uptake assay; conditions: Compound concentration 10.0 uM
[2] = molecular target: Hepatocyte growth factor receptor (Homo sapiens) (UniProt P08581); conditions: Compound concentration 1000.0 nM
[3] = molecular target: Tryptase (Homo sapiens) (UniProt Q9BZJ3+Q15661+Q9NRR2); test: Tryptase (h) Eurofins-Cerep enzyme and uptake assay; format: protein assay; conditions: Compound concentration 10.0 uM
[4] = molecular target: Caspase-10 (Homo sapiens) (UniProt Q92851); test: Caspase-10 (h) Eurofins-Cerep enzyme and uptake assay; conditions: Compound concentration 10.0 uM
[5] = molecular target: Cathepsin S (Homo sapiens) (UniProt P25774); test: Cathepsin S (h) Eurofins-Cerep enzyme and uptake assay; conditions: Compound concentration 10.0 uM
[6] = molecular target: Stromelysin-1 (Homo sapiens) (UniProt P08254); test: MMP-3 (h) Eurofins-Cerep enzyme and uptake assay; conditions: Compound concentration 10.0 uM
[7] = molecular target: Angiotensin-converting enzyme 2 (Homo sapiens) (UniProt Q9BYF1); test: ACE-2 (h) Eurofins-Cerep enzyme and uptake assay; conditions: Compound concentration 10.0 uM
[8] = molecular target: D(2) dopamine receptor (Homo sapiens) (UniProt P14416); conditions: Compound concentration 10.0 uM
[9] = molecular target: Neutrophil elastase (Homo sapiens) (UniProt P08246); test: Elastase (h) Eurofins-Cerep enzyme and uptake assay; conditions: Compound concentration 10.0 uM
[10] = molecular target: Angiotensin-converting enzyme (Homo sapiens) (UniProt P12821); test: ACE (h) Eurofins-Cerep enzyme and uptake assay; conditions: Compound concentration 10.0 uM
[11] = molecular target: Interstitial collagenase (Homo sapiens) (UniProt P03956); test: MMP-1 (h) Eurofins-Cerep enzyme and uptake assay; conditions: Compound concentration 10.0 uM
[12] = molecular target: Disintegrin and metalloproteinase domain-containing protein 17 (Homo sapiens) (UniProt P78536); test: TACE (h) Eurofins-Cerep enzyme and uptake assay; conditions: Compound concentration 10.0 uM
[13] = molecular target: Cathepsin B (Homo sapiens) (UniProt P07858); test: Cathepsin B (h) Eurofins-Cerep enzyme and uptake assay; conditions: Compound concentration 10.0 uM
[14] = molecular target: Procathepsin L (Homo sapiens) (UniProt P07711); test: Cathepsin L (h) Eurofins-Cerep enzyme and uptake assay; conditions: Compound concentration 10.0 uM
[15] = molecular target: Cathepsin Z (Homo sapiens) (UniProt Q9UBR2); test: Cathepsin X (h) Eurofins-Cerep enzyme and uptake assay; conditions: Compound concentration 10.0 uM
[16] = molecular target: Trypsin (Homo sapiens) (UniProt P07477+P07478+P35030); test: Trypsin (h) Eurofins-Cerep enzyme and uptake assay; format: protein assay; conditions: Compound concentration 10.0 uM
[17] = molecular target: Kappa-type opioid receptor (Homo sapiens) (UniProt P41145); conditions: Compound concentration 10.0 uM
[18] = molecular target: Matrix metalloproteinase-9 (Homo sapiens) (UniProt P14780); test: MMP-9 (h) Eurofins-Cerep enzyme and uptake assay; conditions: Compound concentration 10.0 uM
[19] = molecular target: Protein-tyrosine kinase 2-beta (Homo sapiens) (UniProt Q14289); conditions: Compound concentration 1000.0 nM
[20] = molecular target: Pro-cathepsin H (Homo sapiens) (UniProt P09668); test: Cathepsin H (h) Eurofins-Cerep enzyme and uptake assay; conditions: Compound concentration 10.0 uM
[21] = molecular target: Caspase-6 (Homo sapiens) (UniProt P55212); test: Caspase-6 (h) Eurofins-Cerep enzyme and uptake assay; conditions: Compound concentration 10.0 uM
[22] = molecular target: 5-hydroxytryptamine receptor 1A (Homo sapiens) (UniProt P08908); conditions: Compound concentration 10.0 uM
[23] = molecular target: Protease (Human immunodeficiency virus 1) (UniProt Q9YQ12); test: HIV-1 protease Eurofins-Cerep enzyme and uptake assay; conditions: Compound concentration 10.0 uM
[24] = molecular target: Muscarinic acetylcholine receptor M5 (Homo sapiens) (UniProt P08912); conditions: Compound concentration 10.0 uM
[25] = molecular target: Proteinase-activated receptor 1 (Homo sapiens) (UniProt P25116); test: PAR1 (h) Eurofins-Cerep Cellular and Nuclear Receptor Functional Assays; conditions: Compound concentration 10.0 uM
[26] = molecular target: Chymase (Homo sapiens) (UniProt P23946); test: Chymase (h) Eurofins-Cerep enzyme and uptake assay; conditions: Compound concentration 10.0 uM
[27] = molecular target: Alpha-1D adrenergic receptor (Homo sapiens) (UniProt P25100); conditions: Compound concentration 10.0 uM
[28] = molecular target: Beta-3 adrenergic receptor (Homo sapiens, UniProt P13945); test: GPCRScan assay: inhibition of Beta3; parameters: radioligand conc. used [nm] 0.2 – 0.5, parental cells HEK Flp-In
[29] = molecular target: Ribosomal protein S6 kinase alpha-3 (Homo sapiens) (UniProt P51812); conditions: Compound concentration 1000.0 nM
[30] = molecular target: Caspase-3 (Homo sapiens) (UniProt P42574); test: Caspase-3 (h) Eurofins-Cerep enzyme and uptake assay; conditions: Compound concentration 10.0 uM
[31] = molecular target: Sodium-dependent dopamine transporter (Homo sapiens) (UniProt Q01959); conditions: Compound concentration 10.0 uM
[32] = molecular target: Beta-1 adrenergic receptor (Homo sapiens) (UniProt P08588); conditions: Compound concentration 10.0 uM
[33] = molecular target: Caspase-2 (Homo sapiens) (UniProt P42575); test: Caspase-2 (h) Eurofins-Cerep enzyme and uptake assay; conditions: Compound concentration 10.0 uM
[34] = molecular target: Caspase-8 (Homo sapiens) (UniProt Q14790); test: Caspase-8 (h) Eurofins-Cerep enzyme and uptake assay; conditions: Compound concentration 10.0 uM
[35] = molecular target: Matrilysin (Homo sapiens) (UniProt P09237); test: MMP-7 (h) Eurofins-Cerep enzyme and uptake assay; conditions: Compound concentration 10.0 uM
[36] = molecular target: Caspase-1 (Homo sapiens) (UniProt P29466); test: Caspase-1 (h) Eurofins-Cerep enzyme and uptake assay; conditions: Compound concentration 10.0 uM
[37] = molecular target: Cathepsin E (Homo sapiens) (UniProt P14091); test: Cathepsin E Eurofins-Cerep enzyme and uptake assay; conditions: Mus musculus; Compound concentration 10.0 uM
[38] = molecular target: 72 kDa type IV collagenase (Homo sapiens) (UniProt P08253); test: MMP-2 (h) Eurofins-Cerep enzyme and uptake assay; conditions: Compound concentration 10.0 uM
[39] = molecular target: Endothelin-converting enzyme 1 (Homo sapiens) (UniProt P42892); test: ECE-1 (h) Eurofins-Cerep enzyme and uptake assay; conditions: Compound concentration 10.0 uM
[40] = molecular target: Neutrophil collagenase (Homo sapiens) (UniProt P22894); test: MMP-8 (h) Eurofins-Cerep enzyme and uptake assay; conditions: Compound concentration 10.0 uM
[41] = molecular target: T1, GABA-A receptor; anion channel (Rattus norvegicus) (UniProt O09028+P15431+P18506+P18508+P19969+P20236+P23574+P23576+P28471+P28473+P30191+P62813+P63079+P63138+Q91ZM7+Q9ES14); conditions: Compound concentration 10.0 uM
[42] = molecular target: 5-hydroxytryptamine receptor 6 (Homo sapiens) (UniProt P50406); conditions: Compound concentration 10.0 uM
[43] = molecular target: 5-hydroxytryptamine receptor 7 (Homo sapiens) (UniProt P34969); conditions: Compound concentration 10.0 uM
[44] = molecular target: 5-hydroxytryptamine receptor 3A (Homo sapiens) (UniProt P46098); conditions: Compound concentration 10.0 uM
[45] = molecular target: T1, GABA-A receptor; anion channel (Rattus norvegicus); conditions: Compound concentration 10.0 uM; remark: listed apart in the source
[46] = molecular target: Alpha-1B adrenergic receptor (Homo sapiens) (UniProt P35368); conditions: Compound concentration 10.0 uM

Chain of Protein-tyrosine kinase 2-beta (Homo sapiens) (Q14289 whole entry, looked up): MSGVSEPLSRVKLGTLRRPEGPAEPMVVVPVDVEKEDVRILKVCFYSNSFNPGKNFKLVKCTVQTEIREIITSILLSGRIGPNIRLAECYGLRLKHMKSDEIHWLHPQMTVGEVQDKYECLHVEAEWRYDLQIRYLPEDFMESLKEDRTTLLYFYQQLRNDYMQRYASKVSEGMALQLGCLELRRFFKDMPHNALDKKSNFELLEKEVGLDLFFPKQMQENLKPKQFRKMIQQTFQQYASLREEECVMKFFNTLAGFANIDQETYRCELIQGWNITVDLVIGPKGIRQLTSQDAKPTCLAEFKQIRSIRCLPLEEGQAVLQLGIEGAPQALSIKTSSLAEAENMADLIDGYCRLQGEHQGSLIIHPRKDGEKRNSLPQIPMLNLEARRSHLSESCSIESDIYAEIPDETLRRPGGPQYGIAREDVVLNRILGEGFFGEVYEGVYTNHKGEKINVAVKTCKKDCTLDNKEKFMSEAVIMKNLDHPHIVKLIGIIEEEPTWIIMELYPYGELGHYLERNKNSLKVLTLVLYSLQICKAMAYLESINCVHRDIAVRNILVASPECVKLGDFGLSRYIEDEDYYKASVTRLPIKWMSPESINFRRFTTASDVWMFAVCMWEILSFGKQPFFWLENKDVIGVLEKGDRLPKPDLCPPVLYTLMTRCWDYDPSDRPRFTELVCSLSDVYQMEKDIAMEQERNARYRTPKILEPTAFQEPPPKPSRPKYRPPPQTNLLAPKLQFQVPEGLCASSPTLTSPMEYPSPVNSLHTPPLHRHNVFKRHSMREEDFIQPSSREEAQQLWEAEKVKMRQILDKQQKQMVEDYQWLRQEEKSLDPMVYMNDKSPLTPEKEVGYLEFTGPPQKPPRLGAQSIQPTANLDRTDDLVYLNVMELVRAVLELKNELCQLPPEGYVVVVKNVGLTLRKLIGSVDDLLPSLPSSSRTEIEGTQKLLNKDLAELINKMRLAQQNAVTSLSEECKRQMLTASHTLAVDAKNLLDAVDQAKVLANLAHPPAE
Chain of Ribosomal protein S6 kinase alpha-3 (Homo sapiens) (P51812 whole entry): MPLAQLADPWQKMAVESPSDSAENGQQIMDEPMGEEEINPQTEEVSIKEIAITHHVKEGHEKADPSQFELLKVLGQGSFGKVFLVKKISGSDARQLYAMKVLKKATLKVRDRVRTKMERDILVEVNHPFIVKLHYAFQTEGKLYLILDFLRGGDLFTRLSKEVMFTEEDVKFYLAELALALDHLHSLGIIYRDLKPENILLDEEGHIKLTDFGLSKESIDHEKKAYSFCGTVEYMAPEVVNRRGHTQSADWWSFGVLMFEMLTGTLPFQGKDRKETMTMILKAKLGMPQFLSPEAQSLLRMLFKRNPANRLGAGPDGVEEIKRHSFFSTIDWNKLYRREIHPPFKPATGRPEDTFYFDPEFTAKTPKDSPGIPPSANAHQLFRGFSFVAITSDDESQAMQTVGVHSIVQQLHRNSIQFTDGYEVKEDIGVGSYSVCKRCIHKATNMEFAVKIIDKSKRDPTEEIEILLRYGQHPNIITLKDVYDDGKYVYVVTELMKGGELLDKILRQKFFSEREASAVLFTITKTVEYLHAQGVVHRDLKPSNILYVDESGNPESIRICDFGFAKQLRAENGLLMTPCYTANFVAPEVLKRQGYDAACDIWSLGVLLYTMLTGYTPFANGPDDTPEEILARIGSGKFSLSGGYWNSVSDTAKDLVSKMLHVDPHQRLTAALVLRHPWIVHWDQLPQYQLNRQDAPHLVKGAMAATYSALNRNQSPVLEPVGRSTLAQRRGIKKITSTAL
Chain of Hepatocyte growth factor receptor (Homo sapiens) (P08581 whole entry): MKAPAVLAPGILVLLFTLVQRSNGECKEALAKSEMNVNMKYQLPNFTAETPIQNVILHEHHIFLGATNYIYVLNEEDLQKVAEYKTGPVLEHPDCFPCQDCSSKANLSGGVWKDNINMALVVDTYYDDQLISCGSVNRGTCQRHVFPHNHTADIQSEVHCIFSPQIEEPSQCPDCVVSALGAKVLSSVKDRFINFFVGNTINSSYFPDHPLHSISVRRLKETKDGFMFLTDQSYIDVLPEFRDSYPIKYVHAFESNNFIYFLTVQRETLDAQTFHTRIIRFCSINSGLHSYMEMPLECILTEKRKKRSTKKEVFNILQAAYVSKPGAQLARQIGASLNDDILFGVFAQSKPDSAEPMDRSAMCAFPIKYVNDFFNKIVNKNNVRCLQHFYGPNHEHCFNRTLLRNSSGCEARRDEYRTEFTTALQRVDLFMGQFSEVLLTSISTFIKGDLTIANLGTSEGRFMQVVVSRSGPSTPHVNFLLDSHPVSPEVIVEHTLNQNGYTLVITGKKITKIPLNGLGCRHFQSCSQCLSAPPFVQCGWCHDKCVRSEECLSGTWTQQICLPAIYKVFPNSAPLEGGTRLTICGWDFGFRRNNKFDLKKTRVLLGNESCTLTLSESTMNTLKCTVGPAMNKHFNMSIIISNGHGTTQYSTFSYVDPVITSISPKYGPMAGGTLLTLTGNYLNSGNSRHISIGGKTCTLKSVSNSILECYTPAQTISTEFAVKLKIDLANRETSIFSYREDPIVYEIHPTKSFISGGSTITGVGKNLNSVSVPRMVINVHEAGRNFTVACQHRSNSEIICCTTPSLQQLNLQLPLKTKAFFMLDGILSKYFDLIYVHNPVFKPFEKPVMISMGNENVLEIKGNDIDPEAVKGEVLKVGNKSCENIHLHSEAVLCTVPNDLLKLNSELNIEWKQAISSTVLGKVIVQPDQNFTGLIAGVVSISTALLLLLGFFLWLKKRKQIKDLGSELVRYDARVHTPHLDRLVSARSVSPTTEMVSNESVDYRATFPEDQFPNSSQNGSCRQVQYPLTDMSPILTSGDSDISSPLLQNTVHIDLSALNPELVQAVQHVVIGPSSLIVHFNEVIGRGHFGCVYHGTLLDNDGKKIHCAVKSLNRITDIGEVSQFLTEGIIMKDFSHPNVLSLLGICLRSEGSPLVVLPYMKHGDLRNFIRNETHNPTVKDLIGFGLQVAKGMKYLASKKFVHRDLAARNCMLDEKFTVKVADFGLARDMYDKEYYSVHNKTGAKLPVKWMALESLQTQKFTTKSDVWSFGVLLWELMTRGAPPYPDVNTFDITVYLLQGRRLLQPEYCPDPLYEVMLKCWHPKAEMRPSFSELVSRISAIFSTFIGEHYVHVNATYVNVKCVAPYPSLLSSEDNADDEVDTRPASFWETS
Chain of Proteinase-activated receptor 1 (Homo sapiens) (P25116 whole entry): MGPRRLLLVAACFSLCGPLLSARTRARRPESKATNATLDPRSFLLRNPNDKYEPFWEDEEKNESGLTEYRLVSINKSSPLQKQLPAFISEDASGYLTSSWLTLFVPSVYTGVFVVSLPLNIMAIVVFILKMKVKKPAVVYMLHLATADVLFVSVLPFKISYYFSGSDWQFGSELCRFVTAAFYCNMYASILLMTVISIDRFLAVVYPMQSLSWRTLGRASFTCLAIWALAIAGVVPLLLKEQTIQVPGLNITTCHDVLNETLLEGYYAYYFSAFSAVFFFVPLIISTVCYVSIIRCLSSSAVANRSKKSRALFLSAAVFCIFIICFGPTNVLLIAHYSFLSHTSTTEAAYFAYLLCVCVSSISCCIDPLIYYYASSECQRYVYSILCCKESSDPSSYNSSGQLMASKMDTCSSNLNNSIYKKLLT
Chain of 5-hydroxytryptamine receptor 1A (Homo sapiens) (P08908 whole entry): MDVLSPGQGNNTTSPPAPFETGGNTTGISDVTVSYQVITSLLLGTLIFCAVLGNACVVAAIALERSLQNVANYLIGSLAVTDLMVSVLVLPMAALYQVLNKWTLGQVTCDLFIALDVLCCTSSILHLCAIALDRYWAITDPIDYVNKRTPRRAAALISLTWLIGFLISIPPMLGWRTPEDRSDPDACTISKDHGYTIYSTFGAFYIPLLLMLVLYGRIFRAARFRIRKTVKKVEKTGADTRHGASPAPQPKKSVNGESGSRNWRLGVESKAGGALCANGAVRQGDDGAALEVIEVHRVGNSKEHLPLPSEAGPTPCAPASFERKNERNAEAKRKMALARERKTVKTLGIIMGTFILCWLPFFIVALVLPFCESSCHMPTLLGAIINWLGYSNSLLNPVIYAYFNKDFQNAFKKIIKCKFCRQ
Chain of Protease (Human immunodeficiency virus 1) (Q9YQ12 as listed by the source): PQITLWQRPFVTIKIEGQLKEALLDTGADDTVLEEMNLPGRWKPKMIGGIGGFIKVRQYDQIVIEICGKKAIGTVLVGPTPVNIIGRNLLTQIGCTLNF
Chain of Matrix metalloproteinase-9 (Homo sapiens) (P14780 whole entry): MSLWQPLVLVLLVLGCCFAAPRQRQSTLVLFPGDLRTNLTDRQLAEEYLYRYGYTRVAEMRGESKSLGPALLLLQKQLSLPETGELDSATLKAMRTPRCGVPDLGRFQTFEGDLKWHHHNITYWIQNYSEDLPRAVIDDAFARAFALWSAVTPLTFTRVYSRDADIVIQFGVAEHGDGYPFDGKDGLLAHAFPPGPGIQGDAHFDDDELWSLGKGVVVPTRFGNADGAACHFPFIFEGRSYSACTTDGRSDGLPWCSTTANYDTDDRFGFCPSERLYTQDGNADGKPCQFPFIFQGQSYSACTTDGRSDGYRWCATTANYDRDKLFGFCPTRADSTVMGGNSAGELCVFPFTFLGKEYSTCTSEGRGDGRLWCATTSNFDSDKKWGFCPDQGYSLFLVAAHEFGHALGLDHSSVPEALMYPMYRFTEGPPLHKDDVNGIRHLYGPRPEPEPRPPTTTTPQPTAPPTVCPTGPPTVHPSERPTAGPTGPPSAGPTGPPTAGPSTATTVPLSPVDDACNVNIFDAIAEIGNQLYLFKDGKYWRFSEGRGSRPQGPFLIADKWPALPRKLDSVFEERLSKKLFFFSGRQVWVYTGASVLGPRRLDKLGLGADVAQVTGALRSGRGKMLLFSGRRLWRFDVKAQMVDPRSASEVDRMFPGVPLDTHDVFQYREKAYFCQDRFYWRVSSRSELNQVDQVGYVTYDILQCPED
Chain of Procathepsin L (Homo sapiens) (P07711 114-333 limits assumed): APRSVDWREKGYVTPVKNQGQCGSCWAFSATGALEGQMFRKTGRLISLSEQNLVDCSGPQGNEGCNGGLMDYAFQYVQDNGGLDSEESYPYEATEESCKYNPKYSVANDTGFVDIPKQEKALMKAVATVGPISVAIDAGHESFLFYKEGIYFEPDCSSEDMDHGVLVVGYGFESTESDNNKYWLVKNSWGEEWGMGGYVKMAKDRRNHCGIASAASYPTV

Work on COc1ccc2c(O[C@@H]3C[C@H]4C(=O)N[C@]5(C(=O)O)CC5/C=C\CCCCC[C@H](NC(=O)OC5CCCC5)C(=O)N4C3)cc(-c3csc(NC(=O)C(C)C)n3)nc2c1C (stereo not given in full) [BI 1230] yielded a % Inhibition of Control Values [1] of -2.2%, a residual activity [2] of 99% and a % Inhibition of Control Values [3] of 6.9%. For the same compound, the % Inhibition of Control Values [4] was 38.2%, the % Inhibition of Control Values [5] was 27% and the % Inhibition of Control Values [6] was 28%. For the same compound, the % Inhibition of Control Values [7] was -54.7%, the inhibition [8] was 4.88% and the % Inhibition of Control Values [9] was 9.7%. It also gave a % Inhibition of Control Values [10] of 2.6%, a % Inhibition of Control Values [11] of 23.1% and a % Inhibition of Control Values [12] of 63.7%. The % Inhibition of Control Values [13] was -1.7%, the % Inhibition of Control Values [14] was 13.6% and the % Inhibition of Control Values [15] was 12.3%. The % Inhibition of Control Values [16] was 29.8%, the inhibition [17] was 18.1% and the % Inhibition of Control Values [18] was 16.1%. It also gave a residual activity [19] of 100%, a % Inhibition of Control Values [20] of -8.1% and a % Inhibition of Control Values [21] of 10.3%. It also gave an inhibition [22] of -6.16%, a % Inhibition of Control Values [23] of 48.2% and an inhibition [24] of 3.15%. It also gave a % Inhibition of Control Agonist Response [25] of 59.6%, a % of Control Agonist Response [25] of -0.9% and a % Inhibition of Control Values [26] of 21.2%. For the same compound, the inhibition [27] was 20.5%, the pKi [28] was 5.44 and the residual activity [29] was 82%. The % Inhibition of Control Values [30] was 23.8%, the inhibition [31] was 17.4% and the inhibition [32] was 2.05%. The % Inhibition of Control Values [33] was 44.5%, the % Inhibition of Control Values [34] was -6.2% and the % Inhibition of Control Values [35] was 23.4%. The % Inhibition of Control Values [36] was -23.1%, the % Inhibition of Control Values [37] was -16.8% and the % Inhibition of Control Values [38] was 54.8%. It also gave a % Inhibition of Control Values [39] of 14.3% and a % Inhibition of Control Values [40] of 125%.
Compound O=C(N[C@H]1CCCCC/C=C\C2C[C@@]2(C(=O)O)NC(=O)[C@@H]2C[C@@H](Oc3ccncc3)CN2C1=O)OC1CCCC1 (stereo not given in full) [BI 1675] has a residual activity [2] of 60%, an inhibition [41] of 8.04% and an inhibition [42] of -7.71%. It also gave an inhibition [43] of -3.24%, an inhibition [44] of -8.48% and a residual activity [19] of 100%. It also gave an inhibition [45] of -5.88%, an inhibition [46] of -7.2% and a residual activity [29] of 89%.
